The test system of this assay is Plasmodium falciparum. The experiment in a line: Antimalarial activity against Plasmodium falciparum assessed as inhibition of parasite growth by [3H]hypoxanthine incorporation assay. Format: functional, organism-based.
Take `Cn1cc(-c2cc3nccc(-c4cccc(S(C)(=O)=O)c4)c3o2)ccc1=O`: the IC50 is less than 10 nM. For the compound `CC(C)(O)c1cc(-c2ccnc3cc(-c4ccc(S(C)(=O)=O)cc4)oc23)ccn1`, the IC50 is less than 10 nM. `CS(=O)(=O)c1ccc(-c2cc3nccc(-c4cccc(C5(O)CCC5)c4)c3o2)cc1`: the IC50 was less than 10 nM. `CC(C)(O)c1cccc(-c2ncnc3cc(-c4ccc(S(C)(=O)=O)cc4)oc23)c1F`: the half-inhibitory concentration (IC50) is less than 10 nM. For the compound `CC(C)(O)c1cccc(-c2ncnc3cc(-c4ccc(S(C)(=N)=O)cc4)oc23)c1F` (stereo unspecified), the IC50 is less than 10 nM. Regarding `CS(=O)(=O)c1ccc(-c2cc3nccc(-c4cccc(C5(O)CCC(F)(F)CC5)c4)c3o2)cn1`, the IC50 was less than 10 nM.

Usually IC50 stands for the point on the concentration scale where inhibition reaches its midpoint.

These data come from ChEMBL document CHEMBL5532735, “Novel Furopyridine and Furopyrimidine Compounds as PI4K Inhibitors for Treating Malaria and Viral Infection” (ACS Med Chem Lett, 2024).
